Experimental data from patent US20040067850A1, “Agricultural and horticultural composition” (priority 2001, published 2004).

Test system: Oat
Assay: Gotland field trial, foliage application: manganese deficiency assessment in oat
Assay type: in vivo
Conditions: 4 kg/ha, scale 0 = no deficiency, 100 = all plants
Method: Oat was grown on a location on Gotland, Sweden, with severe manganese conditions. […] The invention, MicroplanTM Manganese (150 gram manganese complex bound per liter, amino acids used were methionin and lysine, respectively), was applied to the foliage at growing stage DC 25 (early tillering). […] The same amount of manganese was applied. The assessment, shown in the table 7 below, were done one week and two weeks after application. According to the following procedure: Manganese deficiency 0-100, scale 0=no deficiency 100=all plants/leaves showing deficiency (=yellow leaves).

O=S(=O)([O-])[O-].[Mn+2] [Manganese sulphate]
Manganese deficiency 0-100 (plant/leaf area with symptoms) (6/7-2001): 28 | Manganese deficiency 0-100 (plant/leaf area with symptoms) (16/7-2001): 25
